Common to all, as to assay: NCI anticancer screen, dose series, 48 h
Assay [1] deals with EKVX NSCLC.
For assay [2], the system named is HCC-2998 colon.
For assay [3], the system named is HS 578T breast.
Assay [4] has as its system K-562 leukemia.
The subject of assay [5] is M14 melanoma.
The subject of assay [6] is MALME-3M melanoma.
Assay [7] relates to NCI-H460 lung.
Assay [8] concerns PC-3 prostate.
Assay [9] relates to SW-620 colon.
In assay [10] the test system is UO-31 renal.

Where “and” joins values, the source holds several entries; their conditions need not be identical. Equal values may be shown once.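 1) Cells in 96-well plates. 2) Compound, 48 h, 5 concentrations. 3) Linear interpolation between surrounding doses. 4) Unreached endpoint = highest concentration. Here, GI50 denotes the concentration required for 50% inhibition of growth. The concentration for full growth arrest is given as TGI.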 Some results are limits rather than exact numbers.

As to `CC(C)(C)OC(=O)NCc1cccc(N=C=S)c1`, the GI50 was 23.4 µM in [1]; 16.3 µM in assay [2]; 24.6 µM in [3]; 28.4 µM in assay [4]; 15.3 µM in assay [5]; 14.4 µM in assay [6]. For the same compound, the GI50 in assay [7] was 20.5 µM; in [8], 21.5 µM; in assay [9] it was 18.9 µM; in [10] it was 15.4 µM. For the same compound, the TGI in assay [1] was 61 µM; in assay [2], 30.9 µM; in assay [3], above 84.8 µM; in assay [4], above 88.2 µM; in assay [5], 37 µM; in assay [6], 45.1 µM. Moreover, the TGI in assay [7] was found to be 46.1 µM; in [8], 51.8 µM; in assay [9], 47.7 µM; in [10], 38.8 µM.
Turning to `COc1ccc(-c2c3c(nc4n[nH]c(-c5ccc(Cl)cc5)c24)-c2ccccc2C(=O)C3=O)cc1`, the GI50 was 1.64 µM in [1]; 1.73 µM in [2]; 1.85 µM in assay [3]; 1.58 µM in assay [4]; 1.71 µM in assay [5]; 0.75 µM in assay [6]. Moreover, the GI50 in assay [7] is 1.52 µM; in assay [8], 1.22 µM; in [9], 1.6 µM; in assay [10], 1.17 µM. Besides, the TGI in assay [1] was 4.43 µM; in assay [2], 3.19 µM; in assay [3], 8.14 µM; in [4] it was above 100 µM; in assay [5], 3.48 µM; in assay [6], 2.81 µM. Also, the TGI in assay [7] stood at 3.24 µM; in assay [8], 3.71 µM; in [9], 3.03 µM; in [10] it was 2.9 µM.
For `CCC(C)C(=O)OCC(=O)c1ccc(-c2ccccc2)cc1` (centres undefined), the TGI is 84.4 µM in [1]; above 100 µM in assay [2]; above 100 µM in [3]; above 100 µM in [4]; above 100 µM in assay [5]; above 100 µM in assay [6]. Besides, the TGI in [7], in [8], in assay [9] and in [10] was above 100 µM throughout.
For `CCc1nc(N)nc(N)c1-c1ccc(Cl)c(N=[N+]=[N-])c1`, the TGI was > 100 µM and 99.8 µM in [1]; 23 µM and 30.8 µM in [2]; 93.1 µM and > 100 µM in [3]; above 54.8 µM in assay [4]; 24.1 µM and 49 µM in assay [5]; 30.2 µM and 23.5 µM in [6]. In addition, the TGI was above 81.7 µM in [7]; above 100 µM in [8]; above 100 µM in assay [9]; 88 µM and > 100 µM in assay [10]. Moreover, the GI50 in assay [5] was 0.641 µM and 3.51 µM; in [6] it was 14 µM and 6.3 µM; in assay [7] it was 0.463 µM and 1.23 µM; in [8] it was 12.6 µM and 2.06 µM; in assay [10], 5.8 µM and 14.6 µM.
With `CN(CCC(=O)/C(=C\c1ccccc1)c1ccc(Cl)cc1)Cc1ccccc1`, the GI50 in assay [1] is 5.37 µM; in [2], 3.54 µM; in assay [3] it was 3.99 µM; in assay [4] it was 2.16 µM; in assay [5] it was 2.7 µM; in [6], 3.23 µM. The GI50 is 3.18 µM in assay [7], 2.93 µM in assay [8], 2.63 µM in [9] and 1.74 µM in assay [10]. In addition, the TGI in assay [1] came out at 18.8 µM; in assay [2] it was 9.77 µM; in [3], 47.5 µM; in assay [4], 13.1 µM; in assay [5], 7.99 µM; in [6], 11.8 µM. In addition, the TGI was determined as 11.2 µM in [7], 9.49 µM in assay [8], 7.74 µM in assay [9] and 3.63 µM in [10].
In the case of `COc1ccc2c(c1)-c1nn(CCCN(C)C)c3ccc([N+](=O)[O-])c(c13)N2`, the GI50 in assay [1] was 0.393 µM and 1 µM; in assay [2], 0.148 µM and 0.728 µM; in assay [3] it was 0.355 µM; in assay [4] it was 0.145 µM and 0.338 µM; in assay [6], 0.306 µM and 0.908 µM; in assay [7], 0.103 µM and 0.27 µM. For the same compound, the GI50 in [8] is 0.112 µM and 0.343 µM; in assay [9], 0.0633 µM; in assay [10], 0.165 µM and 0.435 µM. Also, the TGI is 4.22 µM and 9.84 µM in [1]; 1.73 µM and 12.2 µM in assay [2]; 3.17 µM and 3.24 µM in [3]; 5.57 µM and 12.1 µM in assay [4]; 4.7 µM and 7 µM in [5]; 2.9 µM and 7.68 µM in assay [6]. Also, the TGI in [7] is 1.21 µM and 3.06 µM; in [8], 2.75 µM and 3.93 µM; in assay [9], 4.69 µM and 3.65 µM; in assay [10], 1.9 µM and 6.16 µM.
Turning to `O=C(O)c1c(Br)c(Br)c(Br)c(Br)c1C1c2ccc(O)cc2Oc2cc(O)ccc21`, the TGI in assay [1], in assay [2], in [3], in assay [4], in assay [5] and in assay [6] was above 100 µM throughout. The TGI in assay [7], in assay [8], in assay [9] and in [10] was above 100 µM throughout.
`O=C(CCCN1CCC(C(O)c2ccc(F)cc2)CC1)c1ccc(F)cc1` (centres undefined): the TGI in assay [1] came out at 136 µM; in assay [2], 93.4 µM; in [3], 116 µM; in [4] it was 154 µM; in [5], 109 µM; in assay [6] it was 113 µM. Also, the TGI in assay [7] is 115 µM; in assay [8], 99.6 µM; in [9] it was 123 µM; in [10], 79.3 µM.
Regarding `O=C1CC/C(=C/COc2cc(=O)oc3ccccc23)O1`, the GI50 was 17.9 µM in assay [1]; 15.5 µM in [2]; 10.5 µM in assay [3]; 19.3 µM in assay [4]; 2.48 µM in assay [5]; 2.87 µM in assay [6]. For the same compound, the GI50 in assay [7] was 17.5 µM; in assay [8] it was 5.23 µM; in [9] it was 4.37 µM; in [10], 7.65 µM. Besides, the TGI in [1] was 40.1 µM; in assay [2], 29.5 µM; in assay [3], 57.4 µM; in assay [4] it was 95.2 µM; in assay [5] it was 13 µM; in assay [6] it was 17.9 µM. The TGI was found to be 47.2 µM in [7], 23.9 µM in assay [8], 18.2 µM in assay [9] and 21.2 µM in [10].

These data come from PubChem BioAssay (NCI).
